Like-named read-outs stand apart in the source and are kept apart here.
Columns and labels:
[1] = target: T1, FLT-3 kinase domain recombinant protein (Homo sapiens, UniProt P36888); test: Inhibition rate on FLT3 kinase (ELISA); format: biochemical; conditions: two values per compound; for inhibition at 0.01 µM / inhibition at 0.1 µM / inhibition at 1 µM: read-out: Inhibition rate (%) against receptor tyrosine kinase FLT-3
T1 construct: 50 μL FLT-3 kinase domain recombinant protein diluted with reaction buffer to initiate the reaction
T1 sequence (P36888 610-943 limits assumed): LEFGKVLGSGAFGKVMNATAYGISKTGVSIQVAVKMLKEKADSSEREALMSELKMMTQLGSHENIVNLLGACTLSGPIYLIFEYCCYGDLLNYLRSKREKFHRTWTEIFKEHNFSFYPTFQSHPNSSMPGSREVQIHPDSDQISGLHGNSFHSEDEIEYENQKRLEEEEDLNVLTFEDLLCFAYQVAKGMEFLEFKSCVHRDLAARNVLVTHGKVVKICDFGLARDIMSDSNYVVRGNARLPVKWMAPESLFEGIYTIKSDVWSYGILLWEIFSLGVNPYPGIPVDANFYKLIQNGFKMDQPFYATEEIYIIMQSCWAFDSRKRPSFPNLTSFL
Summary of the method: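 Recombinant FLT-3 kinase domain phosphorylated coated Poly(Glu,Tyr) 4:1 with ATP in HEPES pH 7.4 buffer with MgCl2, MnCl2, Na3VO4, DTT, 1 h at 37 °C; 1% DMSO final. Phosphotyrosine detected with PY99 and HRP anti-mouse antibody, OPD development, absorbance at 490 nm.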

[2] = In vivo pharmacokinetic and bioavailability experiments of rats; design: species or system SD rats; conditions: for bioavailability: po, 25 mg/kg, read-out: F (oral bioavailability); for pharmacokinetic parameter, overall judgement: hydrochlorides, in words
Protocol: Pharmacokinetic and bioavailability experiments of rats. SD rats were administered orally (25 mg/kg) and intravenously (2.5 to 5 mg/kg) at a single dose. Animal blood samples were taken at appropriate time points after administration, heparin was added as anticoagulant, and same were centrifuged at 8000 rpm/min for 6 minutes, the supernatant was then taken and stored at −20° C. for HPLC-MS analysis. The proteins in blood samples were precipitated with acetonitrile at 12000 rpm for 10 min, and the supernatant was used for HPCL-MS analysis. Data were fit using DAS2.0 to obtain compartmental model and non-compartmental model parameters, respectively. The oral bioavailability of each compound was calculated according to AUC data.

[3] = Sprague-Dawley, rat, plasma, SD rats, Po, 25 mg/kg single dose
[4] = Sprague-Dawley, rat, plasma, SD rats, Po, 25 mg/kg single dose, read-out: Cmax
[5] = Sprague-Dawley, rat, plasma, SD rats, iv, 5 mg/kg single dose
[6] = Sprague-Dawley, rat, plasma, SD rats, iv, 5 mg/kg single dose, read-out: Cmax
[7] = SD rats, Po, 25 mg/kg single dose
[8] = SD rats, iv, 2.5 mg/kg single dose

Compound	Inhibition rate (%) against receptor tyrosine kinase FLT-3 ([1]; compound 10 nM, 0.01 µM)	inhibition at 0.01 µM ([1]; compound 10 nM)	Inhibition rate (%) against receptor tyrosine kinase FLT-3 ([1]; compound 100 nM, 0.1 µM)	inhibition at 0.1 µM ([1]; compound 100 nM)	Inhibition rate (%) against receptor tyrosine kinase FLT-3 ([1]; compound 1000 nM, 1 µM)	inhibition at 1 µM ([1]; compound 1000 nM)	bioavailability ([2]; Sprague-Dawley, rat, plasma)	AUC(0-inf) [2, 3]	AUC(0-t) [2, 3]	half-life [2, 3]	Cmax [2, 4]	AUC(0-inf) [2, 5]	AUC(0-t) [2, 5]	clearance [2, 5]	half-life [2, 5]	Cmax [2, 6]	pharmacokinetic parameter, overall judgement ([2]; SD rats)	AUC(0-∞) [2, 7]	Cmax [2, 7]	T1/2 [2, 7]	other results
COc1cc2ncnc(Oc3ccc(NC(=O)c4cn5c6c(c(N7CCC(O)CC7)c(F)cc6c4=O)CCC5C)cc3F)c2cc1OC (stereo not drawn) [TL4830031, N-(4-((6,7-dimethoxyquinazolin-4-yl)oxy)-3-fluorophenyl)-9-fluoro-8-(4-hydroxypiperidin-1-yl)-5-methyl-1-oxo-1,5,6,7-tetrahydropyrido[3,2,1-ij]quinoline-2-carboxamide]	57.9%	56.8%	65.8%	71.4%	76.4%	79.5%	12.1%	25900 ng·h/mL	24400 ng·h/mL	5.68 h	2390 ng/mL	20700 ng·h/mL	20300 ng·h/mL	2 mL/min/kg	4.26 h	4360 ng/mL	–	–	–	–	–
CCc1ccc2c(c1)c(=O)c(C(=O)Nc1ccc(Oc3ncnc4cc(OCCCN5CCN(C)CC5)c(OC)cc34)c(F)c1)c(C)n2C [GDL5000138, 6-ethyl-N-(3-fluoro-4-(6-methoxy-7-(3-(4-methylpiperazin-1-yl)propoxy)quinazolin-4-yloxy)phenyl)-1,2-dimethyl-4-oxo-1,4-dihydroquinoline-3-carboxamide]	66.4%	67.7%	83.0%	81.5%	98.1%	98%	27.5%	31300 ng·h/mL	11300 ng·h/mL	34.8 h	656 ng/mL	8530 ng·h/mL	8220 ng·h/mL	9.83 mL/min/kg	5.72 h	3560 ng/mL	appropriate pharmacokinetic parameter	–	–	–	–
CCc1ccc2c(c1)c(=O)c(C(=O)Nc1ccc(Oc3ncnc4cc(OC)c(OC)cc34)c(F)c1)c(C)n2C [TL4800191, N-(4-(6,7-dimethoxyquinazolin-4-yloxy)-3-fluorophenyl)-6-ethyl-1,2-dimethyl-4-oxo-1,4-dihydroquinoline-3-carboxamide]	67.0%	70.7%	77.1%	86.4%	83.2%	84.7%	–	–	31300 ng·h/mL	–	–	42300 ng·h/mL	30500 ng·h/mL	1.67 mL/min/kg	25.2 h	1170 ng/mL	–	31505 ng·h/mL	1967 ng/mL	10.2 h	F (oral bioavailability) ([2]; SD rats, Po 25 mg/kg vs iv 2.5 to 5 mg/kg, calculated according to AUC data): 14.9%; CL [2, 7]: 15 mL/min/kg
CCc1ccc2c(c1)c(=O)c(C(=O)Nc1ccc(Oc3ncnc4[nH]cc(-c5ccccc5)c34)c(F)c1)c(C)n2C [TL4800075, 6-ethyl-N-(3-fluoro-4-((5-phenyl-7H-pyrrolo[2,3-d]pyrimidin-4-yl)oxy)phenyl)-1,2-dimethyl-4-oxo-1,4-dihydroquinoline-3-carboxamide]	41.9%	48.7%	70.4%	76.3%	80.7%	86.6%	1.23%	–	371 ng·h/mL	–	–	–	–	–	–	–	–	505.71 ng·h/mL	121.74 ng/mL	3.72 h	AUC(0-∞) [2, 8]: 3029.64 ng·h/mL; CL [2, 8]: 13.8 mL/min/kg; Cmax [2, 8]: 2910.13 ng/mL; T1/2 [2, 8]: 0.87 h; AUC(0-t) ([2]; Sprague-Dawley, rat, plasma, SD rats, iv, 2.5 mg/kg single dose): 3020 ng·h/mL
CCc1ccc2c(c1)c(=O)c(C(=O)Nc1ccc(Oc3ncnc4cc(OCCCN5CCOCC5)c(OC)cc34)c(F)c1)c(C)n2C [GDL5000123, 6-ethyl-N-(3-fluoro-4-((6-methoxy-7-(3-morpholinopropoxy)quinazolin-4-yl)oxy)phenyl)-1,2-dimethyl-4-oxo-1,4-dihydroquinoline-3-carboxamide]	74.8%	75.4%	83.8%	89.3%	97.4%	104%	23.5%	118000 ng·h/mL	51500 ng·h/mL	26.7 h	3080 ng/mL	47700 ng·h/mL	43800 ng·h/mL	1.83 mL/min/kg	6.7 h	6480 ng/mL	appropriate pharmacokinetic parameter	–	–	–	–
CCc1ccc2c(c1)c(=O)c(C(=O)Nc1ccc(Oc3ncnc4cc(OCCN(C)C)c(OC)cc34)c(F)c1)c(C)n2C [GDL5000128, N-(4-(7-(2-(dimethylamino)ethoxy)-6-methoxyquinazolin-4-yloxy)-3-fluorophenyl)-6-ethyl-1,2-dimethyl-4-oxo-1,4-dihydroquinoline-3-carboxamide]	71.7%	59.1%	79.5%	75.4%	–	87.9%	44.3%	25600 ng·h/mL	25100 ng·h/mL	4.59 h	4630 ng/mL	11600 ng·h/mL	11300 ng·h/mL	7.5 mL/min/kg	5.82 h	16800 ng/mL	appropriate pharmacokinetic parameter	–	–	–	–

From patent US10683278B2 (JINAN UNIVERSITY, priority 2015, dated 2020)
